# Measurements published in patent publication US7816535B2, “Vinyl-phenyl derivatives for inflammation and immune-related uses” (Synta Pharmaceuticals Corp., priority 2006, dated 2010).
# Tested on: IL-2 production
# Assay: Inhibition of IL-2 production in PHA-activated Jurkat cells (ELISA)
# Assay type: cell-based
# Settings: Homo sapiens, Jurkat, 20 h, PHA 2.5 μg/mL, IL-2 ELISA
# Experimental: Jurkat cells were placed in a 96 well plate (0.5 million cells per well in 1% FBS medium) then a test compound of this invention was added at different concentrations. After 10 minutes, the cells were activated with PHA (final concentration 2.5 μg/mL) and incubated for 20 hours at 37° C. under CO2. The final volume was 200 μL. Following incubation, the cells were centrifuged and the supernatants collected and stored at −70° C. prior to assaying for IL-2 production. A commercial ELISA kit (IL-2 Eli-pair, Diaclone Research, Besancon, France) was used to detect production of IL-2, from which dose response curves were obtained. The IC50 value was calculated as the concentration at which 50% of maximum IL-2 production after stimulation was inhibited versus a non-stimulation control.
row,IC50,SMILES
1,90 nM,"O=CC1=C(c2ccc(NC(=O)c3c(F)cccc3F)cc2)CCCC1 [Compound 100, N-[4-(2-formyl-cyclohex-1-enyl)-phenyl]-2,6-difluoro-benzamide]"
2,44.1 nM,"CC1=C(c2ccc(NC(=O)c3ccncc3F)cc2)CN(c2nnnn2C)CC1 [Compound 85, N-{4-[1-(1-methyl-1H-tetrazol-5-yl)-4-methyl-1,2,5,6-tetrahydro-pyridin-3-yl]-phenyl}-3-fluoro-isonicotinamide]"
3,941 nM,"CC1=C(c2ccc(NC(=O)c3c(F)cccc3F)cc2)CCN(C(=O)Oc2ccccc2)C1 [Compound 55, 2,6-Difluoro-N-[4-(1-phenyloxycarbonyl-3-methyl-1,2,5,6-tetrahydro-pyridin-4-yl)-phenyl]-benzamide]"
4,150 nM,"COC(=O)N1CCC(C)=C(c2ccc(NC(=O)c3ccncc3C)cc2)C1 [Compound 103, N-[4-(1-methoxycarbonyl-4-methyl-1,2,5,6-tetrahydro-pyridin-3-yl)-phenyl]-3-methyl-isonicotinamide]"
5,104 nM,"COC(=O)C1=C(c2ccc(NC(=O)c3c(F)cccc3F)cc2)CCCCC1 [Compound 35, 2,6-Difluoro-N-[4-(2-methoxycarbonyl-cyclohept-1-enyl)-phenyl]-benzamide]"

# Second part, the compound before the results:
row,SMILES,IC50
1,"CC1=C(c2ccc(NC(=O)c3ncncc3C)cc2)CCCC1 [Compound 26, 5-Methyl-pyrimidine-4-carboxylic acid [4-(2-methyl-cyclohex-1-enyl)-phenyl]-amide]",165 nM
2,"CC(C)=C(C)c1ccc(NC(=O)c2ccncc2F)cc1 [Compound 13, 3-Fluoro-N-(4-(3-methylbut-2-en-2-yl)phenyl)-isonicotinamide]",382 nM
3,"CC(=O)[C@@H]1CCC(C)=C(c2ccc(NC(=O)c3ccncc3C)cc2)C1 [Compound 6, 3-Methyl-N-[4-(2-methyl-5(R)-acetyl-cyclohex-1-enyl)-phenyl]-isonicotinamide]",68 nM

# Same assay, conditions: Homo sapiens, PHA 2.5 μg/mL, 20 hours, IL-2 ELISA
row,SMILES,IC50
1,"CC1=C(c2ccc(NC(=O)c3c(F)cccc3F)cc2)CCN(Cc2ccccc2)C1 [Compound 19, N-(4-(1-benzyl-5-methyl-1,2,3,6-tetrahydropyridin-4-yl)phenyl)-2,6-difluorobenzamide]",513 nM
